pIC50: −log10 of the molar value.

The first experiment has as its target T1, Syk (Homo sapiens, UniProt P43405).
T1 construct: purchased Carna Biosciences
As to the kind of experiment: Syk HTRF assay. The format is biochemical. The note with it: IC50 activity level, read-out: Activity Level. The essentials:
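Read-out is the 665 nm/615 nm time-resolved fluorescence ratio after EDTA stop and Eu-anti-phosphotyrosine plus streptavidin-DyLight 647 detection. Reaction ran 1 h at room temperature with start mix of 87.5 μM ATP and 80 nM substrate peptide in pH 7.6 HEPES/MgCl2 buffer.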
For orientation: In TR-FRET formats the signal depends on donor and acceptor labels being close together.
Turning to `Cc1cc(Nc2nc3cccc(N[C@H]4CC[C@@H](O)CC4)n3n2)c2c(c1)N(C)C(=O)C2` [Example 554, cis-4-(5-(4-hydroxycyclohexylamino)-[1,2,4]triazolo[1,5-a]pyridin-2-ylamino)-1,6-dimethylindolin-2-one], the pIC50 was 6.00 to 6.30.

As for `Cc1cc(Nc2nc3cccc(N[C@H]4CC[C@@H](O)CC4)n3n2)cc2c1CC(=O)N2C` [Example 556], the pIC50 was 6.60 to 11.30.

Regarding `c1cc(CC2CCOCC2)n2nc(Nc3ccc(-c4nc[nH]n4)cc3)nc2c1` [Example 557, N-(4-(1H-1,2,4-triazolo-3-yl)phenyl)-5-((tetrahydro-2H-pyran-4-yl)methyl)-[1,2,4]triazolo[1,5-a]pyridin-2-amine], the pIC50 is 6.00 to 6.30.

For the compound `COc1cc(-c2cccc3nc(Nc4ccc5c(c4)NC(=O)C5(C)C)nn23)ccn1` [Example 559, 6-(5-(2-methoxypyridin-4-yl)-[1,2,4]triazolo[1,5-a]pyridin-2-ylamino)-3,3-dimethylindolin-2-one], the pIC50 was 6.60 to 11.30.

For the compound `NC(=O)c1ccc(Nc2nc3cccc(NC4CCCCC4)n3n2)cc1` [Example 560, 4-(5-(cyclohexylamino)-[1,2,4]triazolo[1,5-a]pyridin-2-ylamino)benzamide], the pIC50 was 6.00 to 6.30.

As for `Cc1n[nH]c2cc(Nc3nc4cccc(C(F)(F)C5CCOCC5)n4n3)ccc12` [Example 562, 5-(difluoro(tetrahydro-2H-pyran-4-yl)methyl)-N-(3-methyl-1H-indazol-6-yl)-[1,2,4]triazolo[1,5-a]pyridin-2-amine], the pIC50 was 6.60 to 11.30.

For the compound `Cc1n[nH]c2cc(Nc3nc4cccc(C(F)(F)C5COCCO5)n4n3)ccc12` (stereo not drawn) [Example 563, 5-((1,4-dioxan-2-yl)difluoromethyl)-N-(3-methyl-1H-indazol-6-yl)-[1,2,4]triazolo[1,5-a]pyridin-2-amine], the pIC50 was 6.60 to 11.30.

For `Cc1cccc2nc(Nc3ccc4c(c3)NC(=O)C4(C)C)nn12` [Example 564], the pIC50 is 6.60 to 11.30.

For the compound `c1cc(NC2CCOCC2)n2nc(Nc3ccc(-c4nc[nH]n4)cc3)nc2c1` [Example 565, N^2-(4-(1H-1,2,4-triazol-3-yl)phenyl)-N^5-(tetrahydro-2H-pyran-4-yl)-[1,2,4]triazolo[1,5-a]pyridine-2,5-diamine], the pIC50 is 5.00 to 6.00.

Take `CN(C)c1cccc2nc(Nc3ccc4c(c3)NC(=O)C4(C)C)nn12` [Example 566, 6-(5-(dimethylamino)-[1,2,4]triazolo[1,5-a]pyridin-2-ylamino)-3,3-dimethylindolin-2-one]: the pIC50 was 6.60 to 11.30.

For the compound `O[C@H]1CC[C@@H](Nc2cccc3nc(Nc4ccc(-c5nc[nH]n5)cc4)nn23)CC1` [Example 567, cis-4-(2-(4-(1H-1,2,4-triazol-3-yl)phenylamino)-[1,2,4]triazolo[1,5-a]pyrridin-5-ylamino)cyclohexanol], the pIC50 is 6.60 to 11.30.

For the compound `Cc1nnc2cc(Nc3nc4cccc(N[C@H]5CC[C@@H](O)CC5)n4n3)ccn12` [Example 568, cis-4-(2-(3-methyl-[1,2,4]triazolo[4,3-a]pyridin-7-ylamino)-[1,2,4]triazolo[1,5-a]pyridin-5-ylamino)cyclohexanol], the pIC50 is 6.60 to 11.30.

On to `Cn1c(=O)[nH]c2cc(Nc3nc4cccc(NC5CCOCC5)n4n3)ccc21` [Example 569, 1-methyl-5-(5-(tetrahydro-2H-pyran-4-ylamino)-[1,2,4-]triazolo[1,5-a]pyridin-2-ylamino)-1H-benzo[d]imidazol-2(3H)-one], for which the pIC50 was 6.60 to 11.30.

Take `Cn1c(=O)[nH]c2cc(Nc3nc4cccc(N[C@H]5CC[C@@H](O)CC5)n4n3)ccc21` [Example 570, cis-5-(5-(4-hydroxycyclohexylamino)-[1,2,4]triazolo[1,5-a]pyridin-2-ylamino)-1-methyl-1H-benzo[d]imidazol-2(3H)-one]: the pIC50 is 6.60 to 11.30.

In the case of `CC1(C)C(=O)Nc2cc(Nc3nc4cccc(N5CCOCC5)n4n3)ccc21` [Example 571, 3,3-dimethyl-6-(5-morpholino-[1,2,4]triazolo[1,5-a]pyridin-2-ylamino)indolin-2-one], the pIC50 is 6.60 to 11.30.

The experiment is the same for the next values; noted with them: read-out: Activity Level (Syk HTRF assay IC50).
Regarding `CN(C)Cc1nc2ccc(Nc3nc4cccc(-c5cccc(F)c5)n4n3)cc2[nH]1` [compound 1, N-(2-((dimethylamino)methyl)-1H-benzo[d]imidazol-6-yl)-5-(3-fluorophenyl)-[1,2,4]triazolo[1,5-a]pyridin-2-amine], the pIC50 was 6.60 to 11.30.

Turning to `Fc1cccc(-c2cccc3nc(Nc4ccc5[nH]ncc5c4)nn23)c1` [compound 2, 5-(3-fluorophenyl)-N-(1H-indazol-5-yl)-[1,2,4]triazolo[1,5-a]pyridin-2-amine], the pIC50 is 6.60 to 11.30.

`OCc1nc2ccc(Nc3nc4cccc(-c5cccc(F)c5)n4n3)cc2[nH]1` [compound 3, (6-(5-(3-fluorophenyl)-[1,2,4]triazolo[1,5-a]pyridin-2-ylamino)-1H-benzo[d]imidazol-2-yl)methanol]: the pIC50 was 6.60 to 11.30.

With `Cn1cnc2ccc(Nc3nc4cccc(-c5cccc(F)c5)n4n3)cc21` [compound 4], the pIC50 is 6.60 to 11.30.

In the case of `CNC(=O)c1ccc(Nc2nc3cccc(-c4cc(Cl)cc(-c5ccccc5C(N)=O)c4)n3n2)cc1` [compound 5, 3′-chloro-5′-(2-(4-(methylcarbamoyl)phenylamino)-[1,2,4]triazolo[1,5-a]pyridin-5-yl)biphenyl-2-carboxamide], the pIC50 was 6.60 to 11.30.

Turning to `CNC(=O)c1ccc(Nc2nc3cccc(-c4cc(Cl)cc(CCCN)c4)n3n2)cc1` [compound 6, 4-(5-(3-(3-aminopropyl)-5-chlorophenyl)-[1,2,4]triazolo-[1,5-a]pyridin-2-ylamino)-N-methylbenzamide], the pIC50 is 6.60 to 11.30.

Turning to `CNC(=O)c1ccc(Nc2nc3cccc(-c4cccc(-c5cnc[nH]5)c4)n3n2)cc1` [compound 7, 4-(5-(3-(1H-imidazol-5-yl)phenyl)-[1,2,4]triazolo[1,5-a]pyridin-2-ylamino)-N-methylbenzamide], the pIC50 is 6.60 to 11.30.

For the compound `CNC(=O)c1ccc(Nc2nc3cccc(-c4cccc(CCCN)c4)n3n2)cc1` [compound 8, 4-(5-(3-(3-aminopropyl)phenyl)-[1,2,4]triazolo[1,5-a]pyridin-2-ylamino)-N-methylbenzamide], the pIC50 is 6.60 to 11.30.

As for `CNC(=O)c1ccc(Nc2nc3cccc(-c4ccc(-c5c[nH]cn5)cc4)n3n2)cc1` [compound 9, 4-(5-(4-(1H-imidazol-4-yl)phenyl)-[1,2,4]triazolo[1,5-a]pyridin-2-ylamino)-N-methylbenzamide], the pIC50 was 6.60 to 11.30.

On to `Cc1nc2ccc(Nc3nc4cccc(-c5cccc(O)c5)n4n3)cc2[nH]1` [compound 10, 3-(2-(2-methyl-1H-benzo[d]imidazol-6-ylamino)-[1,2,4]triazolo[1,5-a]pyridin-5-yl)phenol], for which the pIC50 was 6.60 to 11.30.

Turning to `CNC(=O)c1ccc(Nc2nc3cccc(-c4cccc(CCN)c4)n3n2)cc1` [compound 11, 4-(5-(3-(2-aminoethyl)phenyl)-[1,2,4]triazolo[1,5-a]pyridin-2-ylamino)-N-methylbenzamide], the pIC50 is 6.30 to 6.60.

For `CNC(=O)c1ccc(Nc2nc3cccc(-c4cccc(F)c4)n3n2)cc1` [compound 12, 4-(5-(3-fluorophenyl)-[1,2,4]triazolo[1,5-a]pyridin-2-ylamino)-N-methylbenzamide], the pIC50 was 6.30 to 6.60.

Source of the values: US8299056B2 (Signal Pharmaceuticals, LLC, priority 2008, dated 2012).
